In patent publication US9592226B2, “Solenopsin and derivatives, therapeutic compositions; and methods related thereto” (priority 2013, dated 2017):

Key:
Akt = experiment: FRET biosensor AktAR, Akt activity in NIH3T3 cells; type: cell-based, murine; conditions: 10 μM, 1 h
Protocol: (§1) In order to determine whether solenopsin A and analogs have similar modes of action to ceramide, a series of fluorescent biosensors were employed for the PI3K/Akt pathway. […] No significant inhibition could be seen for any of the other solenopsin analogs (FIG. 4).
(§2) PARE was generated by sandwiching full-length PDK1 between a fluorescent protein pair (FRET pair), ECFP and citrine, and a motif generated from the Lyn-kinase gene was added to the 5′-end to target the construct to raft microdomains. AktAR was generated by a fluorescent protein pair, cerulean and cpVE172, sandwiching a forkhead-associated binding domain (FHA1) and an Akt substrate domain (FOXO). PH(Akt)-citrine was constructed by attaching the yellow fluorescent protein (citrine) to the C-terminus of PH domain of Akt1, therefore the translocation of Akt PH domain can be detected by increase of yellow fluorescence at plasma membrane.
(§3) NIH3T3 cells were plated and grown to 40% confluency. […] The data was analyzed with Metafluor 6.2 software (Universal Imaging, Downingtown, Pa.). Cell regions were selected and fluorescence images were background-corrected by deducting the background (regions with no cells) from the emission intensities of CFP or YFP. […] For analysis of PH (Akt) domain translocation (PH(Akt)-citrine), the ratio of intensities of citrine at cell membrane and cytosol were calculated after background correction. […]

[1] = test system: SVR (murine angiosarcoma) cells; experiment: Proliferation study, SVR cells (Coulter Counter); type: cell-based; conditions: 10 μM, 24 h, cell count vs DMSO
From the text: (§4) Different analogs of solenopsin were synthesized (FIG. 1) in order to explore their structure-activity relationships. The aliphatic side chains of S14 and S13 are 4 and 8 carbons longer compared to solenopsin, respectively. S11 has an 8-carbon longer side chain, as well as an extra methyl group in the 4-position of the piperidine ring. S15 has an 11-carbon side chain similar to solenopsin, but the first carbon in the side chain is hydroxylated. Also, S15 lacks the methyl group in the 2-position of the piperidine ring. All the analogs together with (−)- and (+)-solenosin A, and the isomeric mixture of the two cis-isomers of solenopsin (S12) were tested, at 10 μM, on two different human melanoma cell lines (A375 and A2058) and one murine angiosarcoma cell line (SVR) (FIG. 2). The A375 and A2058 melanoma cell lines express mutant Braf and the SVR murine angiosarcoma cell line expresses mutant Hras. One important difference between the two human melanoma cell lines is the A2058 is PTEN null, whereas A375 is not.
(§5) A375 (human melanoma), A2058 (human melanoma), or SVR (murine angiosarcoma) cells were plated at a concentration of 50,000 cells/well. The cells were treated with 10 μM of (−)-solenopsin A, (+)-solenopsin A, or analogs (S11-S15) for 24 hours, at which point cells were counted with a Coulter Counter.

PH domain of Akt1 = target: T1, PH domain of Akt1 (Homo sapiens, UniProt P31749); experiment: PH(Akt)-citrine, Akt translocation in NIH3T3 cells; type: cell-based, murine; conditions: 10 μM, 1 h
T1 construct: attaching the yellow fluorescent protein (citrine) to the C-terminus of PH domain of Akt1; expressed in transfected cells; host or cells: NIH3T3
T1 sequence (P31749 5-108 limits assumed): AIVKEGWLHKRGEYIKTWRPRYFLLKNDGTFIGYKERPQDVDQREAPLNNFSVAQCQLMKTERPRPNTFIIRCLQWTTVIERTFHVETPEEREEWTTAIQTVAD
Protocol: as §1, §2, §3

UM-SCC1A cells = experiment: Oxygen consumption rate (Seahorse) in UM-SCC1A cells; type: cell-based, human; conditions: 10 μM, 24 h
Protocol: UM-SCC1A cells were plated 15,000/well and treated for 24 h with 10 μM of (+)-solenopsin A ((+) Sol. A), (−)-solenopsin A ((−) Sol. A), and solenopsin analogs S11-S15. Oxygen consumption rate (OCR) was measured as pmoles O2/minute using a Seahorse Biosciences instrument. Data shown are an average of three experiments±s.d.
At least not in Braf mutated cell lines, such as A375 and A2058. One possibility is that solenopsin, like ceramide, may also localize to mitochondria, and cause mitochondrial induced cell death. Cellular oxygen consumption rate can be indicative of mitochondrial function. Therefore, to investigate if solenopsin A and analogs do alter mitochondrial function, UM-SCC1A (human head and neck SCC) cells were then treated with 10 μM compound or the equivalent amount of DMSO and incubated for 24 hours. A SeaHorse Bioscience instrument was used to measure the oxygen consumption rate (OCR). […] Mitophagy can be one reason for decreased OCR, but further assays are needed to confirm the cause for the observed differences.
UM-SCC1A cells were plated 15,000 per well in 200 μl DMEM supplemented with 10% FBS and 1% penicillin-streptomycin in each well of a 96-well Seahorse plate and incubated overnight at 37° C. with 5% CO2. Cells were then treated with 10 μM compound or the equivalent amount of DMSO and incubated for 24 hours. OCR was measured as pmoles O2/minute using the Seahorse Biociences instrument per manufacturer's instructions. Protein amounts in each well were then quantified using the Thermo Scientific Pierce Protein Assay, per manufacturer's instructions.

[2] = test system: A2058 (human melanoma) cells; experiment: Proliferation study, A2058 cells (Coulter Counter); type: cell-based; conditions: 10 μM, 24 h, cell count vs DMSO
From the text: as §4, §5

A375 cells = experiment: Superoxide (ROS) by DHE fluorescence, A375 cells; type: cell-based, human; conditions: 10 μM, 24 h
Protocol: Cells were treated for 24 h with 10 μM of (+)-solenopsin A ((+) Sol. A), (−)-solenopsin A ((−) Sol. A), and solenopsin analogs S11-S15. Cells were trypsined and incubated for 10 min in 10 μM dihydroethedium (DHE), followed by analysis with a FACScan flow cytometer. Data shown are an average of three experiments±s.d.
A375 or SVR cells were plated in 6 cm dishes. After cells had adhered to the plates, they were treated for 24 h with 10 μM DMSO solutions of (+)-solenopsin A, (−)-solenopsin A, or analogs (S11-S15) at which time the media was aspirated. Cells were washed with 2 mL PBS then treated with 0.05% trypsin/0.53 mM EDTA (Fisher) for 3 min at RT. Cells were collected and then pelleted at 600 g for 2 min. The supernatant was aspirated and the cells were suspended in 10 uM dihydroethidium (DHE) (Life Technologies) and incubated for 10 min in the dark at RT while shaking Following this incubation, cells were kept until counting on a Becton Dickinson FACScan flow cytometer. 10,000 cells were counted and analyzed by FlowJo 7.6.4. Mean values of DHE fluorescence intensity were compared.

PDK1 = target: T2, PDK1 (Homo sapiens, UniProt O15530); experiment: FRET biosensor Lyn-PARE, PDK1 activation in membrane rafts of NIH3T3 cells; type: cell-based, murine; conditions: 10 μM, 1 h
T2 construct: PARE was generated by sandwiching full-length PDK1 between a fluorescent protein pair (FRET pair), ECFP and citrine; expressed in transfected cells; host or cells: NIH3T3
T2 sequence (O15530 1-556): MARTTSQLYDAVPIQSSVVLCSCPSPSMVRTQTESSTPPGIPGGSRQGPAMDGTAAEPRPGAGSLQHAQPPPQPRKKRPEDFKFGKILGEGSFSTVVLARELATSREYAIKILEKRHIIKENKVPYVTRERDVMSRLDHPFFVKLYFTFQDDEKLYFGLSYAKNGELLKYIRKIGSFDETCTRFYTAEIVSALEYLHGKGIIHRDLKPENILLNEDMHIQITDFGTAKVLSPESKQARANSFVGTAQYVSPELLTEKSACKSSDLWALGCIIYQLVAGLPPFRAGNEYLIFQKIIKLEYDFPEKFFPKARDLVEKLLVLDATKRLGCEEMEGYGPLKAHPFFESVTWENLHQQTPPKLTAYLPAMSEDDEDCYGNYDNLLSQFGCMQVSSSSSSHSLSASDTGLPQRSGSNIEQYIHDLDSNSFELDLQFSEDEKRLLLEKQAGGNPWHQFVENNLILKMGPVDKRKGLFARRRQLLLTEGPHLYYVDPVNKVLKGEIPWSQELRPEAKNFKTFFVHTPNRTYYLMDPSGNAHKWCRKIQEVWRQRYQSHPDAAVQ
Protocol: as §1, §2, §3

[3] = test system: A375 (human melanoma) cells; experiment: Proliferation study, A375 cells (Coulter Counter); type: cell-based; conditions: 10 μM, 24 h, cell count vs DMSO
Protocol: 50,000 cells/well were plated and treated for 24 h with each compound. The first DMSO bar in each chart serves as control for (+)-solenopsin A, (−)-solenopsin A, and ceramide C2. The second DMSO bar is the control for S11-S15.
as §4, §5

CCCCCCCCCCCCCCCCCCCC1CCCC(C)N1 (centres unmarked) [Compound S13, 2-Methyl-6-nonadecylpiperidine]
inhibition of Akt activity (AktAR) (Akt): some inhibition | antiproliferative effect [1]: lower antiproliferative effect than S12 | inhibition of Akt translocation (PH(Akt)-citrine) (PH domain of Akt1): some inhibition | oxygen consumption rate (OCR) compared to DMSO control (UM-SCC1A cells): slightly reduced OCR | antiproliferative effect [2]: lower antiproliferative effect than S12 | effect on superoxide levels (DHE fluorescence) (A375 cells): no effect on superoxide levels | inhibition of PDK1 activation (Lyn-PARE) (PDK1): some inhibition | antiproliferative effect [3]: lower antiproliferative effect than S12
